Tests used:
HER-2 = target: T1, HER-2 (Homo sapiens, UniProt P04626); assay: Assay for modulation of HER-2 activity in whole cells (ELISA); assay type: cell-based; settings: EGFR/HER-2chimera/#T3-C7 cell lines, EGF stimulated; read-out: HER-2 kinase IC50
T1 construct: expressed in mouse 3T3 (clone C7) cells; P00533 (Epidermal growth factor receptor)
Method: Using the following reagents, supplies, and method, the ability of compounds of the invention to affect the activity of HER-2 in whole cells in an ELISA format can be assigned.
EGFR/HER-2chimera/#T3-C7 cell lines are used for this assay. Choose dishes having 80-90% confluence for the experiment. Collect cells by trypsinization and centrifuge at 1000 rpm at room temperature for 5 minutes.
Resuspend cells in starve medium and count with trypan blue. Only viability above 90% is acceptable. Seed cells in starve medium at a density of 2,500 cells per well, 90 μL per well, in a 96 well microtiter plate. Incubate seeded cells in 5% CO2 at 37° C. overnight. Start the assay two days after seeding.
Samples are diluted directly into a polypropylene plate containing starve-DMEM (non-sterile is okay). This dilution will be 1:10 or greater, depending on the samples being screened. The same amount of DMSO is put into the control wells. […] are then transferred to the cell plate at a 1:10 dilution (10 μL of sample and media into 90 μL of starve media). The final DMSO concentration will be 1% or lower.
Ten samples are put into wells 2-11 of row A of the NUNC 96 well polypropylene plate. These wells contain straight starve-DMEM. For a 1:10 dilution, one would put 10 μL of drug into 90 μL of media. The rest of the wells (including the controls) will have a DMSO/media mixture. The percentage of DMSO in this mixture is determined by the first dilution factor, in this case 1:10. The DMSO concentration is therefore 10%. An equal amount of drug and media from row A is put into row B, containing DMSO and media. The same amount is then taken out and put into row C. This is repeated for all rows. These are 1:2 dilutions. All wells are then transferred to the cell plate at a 1:10 dilution (10 μL of sample and media into 90 μL of starve-DMEM. The final DMSO concentration will be 1% or lower. […]
After a 2 hour incubation with the drug, add prepared EGF ligand to cells at 50 μL per well, for a final concentration of 50 nM. Positive control wells (8) receive the same amount of EGF. […] Incubate at 37° C. for 10 minutes.
Remove drug, EGF, and DMEM by dumping in sink. Wash cells once with PBS.
Transfer HNTG* to cells, 100 μL per well. Place on ice for 5 minutes. Meanwhile, remove blocking buffer from ELISA plate and wash as described above. With a pipette tip securely fitted to a micropipettor, scrape cells from plate and homogenize cell material by repeatedly aspirating and dispensing the HNTG* lysis buffer. Transfer lysate to a coated, blocked, washed ELISA plate. Alternatively, one may use a Costar transfer cartridge to transfer lysate to the ELISA plate. Incubate, shaking, at room temperature for one hour.
Remove lysate by dumping in sink, then wash as described earlier. Transfer freshly diluted anti-phosphotyrosine (anti-Ptyr) antibody (1:3000 in TEST) to ELISA plate, 100 μL per well. Incubate, shaking, at room temperature, for 30 minutes.
Remove anti-Ptyr antibody by dumping in sink, then wash as described earlier. Transfer freshly diluted BIOSOURCE antibody to ELISA plate, (1:8000 in TEST), 100 μL per well. Incubate, shaking, at room temperature for 30 minutes.
Remove BIOSOURCE antibody by dumping in sink, then wash as described earlier. Transfer freshly prepared ABTS/H2O2 solution to ELISA plate, […]. Incubate 5-10 minutes while shaking. Remove any bubbles and if necessary, stop reaction with the addition of 100 μL of 0.2 M HCl per well.
Read assay on Dynatech MR7000 ELISA reader. Test Filter: […]; Reference Filter: […]. A preferred template for the placement of controls in this experiment is provided below: […]

EGFR = target: T2, EGFR (Homo sapiens, UniProt P00533); assay: Assay for modulation of EGFR activity (ELISA); assay type: biochemical; settings: read-out: bio EGFR IC50
T2 construct: A431 […] cell lysate is stored at −80° C; host or cells: A431 cell lysate
T2 sequence (P00533 25-1210): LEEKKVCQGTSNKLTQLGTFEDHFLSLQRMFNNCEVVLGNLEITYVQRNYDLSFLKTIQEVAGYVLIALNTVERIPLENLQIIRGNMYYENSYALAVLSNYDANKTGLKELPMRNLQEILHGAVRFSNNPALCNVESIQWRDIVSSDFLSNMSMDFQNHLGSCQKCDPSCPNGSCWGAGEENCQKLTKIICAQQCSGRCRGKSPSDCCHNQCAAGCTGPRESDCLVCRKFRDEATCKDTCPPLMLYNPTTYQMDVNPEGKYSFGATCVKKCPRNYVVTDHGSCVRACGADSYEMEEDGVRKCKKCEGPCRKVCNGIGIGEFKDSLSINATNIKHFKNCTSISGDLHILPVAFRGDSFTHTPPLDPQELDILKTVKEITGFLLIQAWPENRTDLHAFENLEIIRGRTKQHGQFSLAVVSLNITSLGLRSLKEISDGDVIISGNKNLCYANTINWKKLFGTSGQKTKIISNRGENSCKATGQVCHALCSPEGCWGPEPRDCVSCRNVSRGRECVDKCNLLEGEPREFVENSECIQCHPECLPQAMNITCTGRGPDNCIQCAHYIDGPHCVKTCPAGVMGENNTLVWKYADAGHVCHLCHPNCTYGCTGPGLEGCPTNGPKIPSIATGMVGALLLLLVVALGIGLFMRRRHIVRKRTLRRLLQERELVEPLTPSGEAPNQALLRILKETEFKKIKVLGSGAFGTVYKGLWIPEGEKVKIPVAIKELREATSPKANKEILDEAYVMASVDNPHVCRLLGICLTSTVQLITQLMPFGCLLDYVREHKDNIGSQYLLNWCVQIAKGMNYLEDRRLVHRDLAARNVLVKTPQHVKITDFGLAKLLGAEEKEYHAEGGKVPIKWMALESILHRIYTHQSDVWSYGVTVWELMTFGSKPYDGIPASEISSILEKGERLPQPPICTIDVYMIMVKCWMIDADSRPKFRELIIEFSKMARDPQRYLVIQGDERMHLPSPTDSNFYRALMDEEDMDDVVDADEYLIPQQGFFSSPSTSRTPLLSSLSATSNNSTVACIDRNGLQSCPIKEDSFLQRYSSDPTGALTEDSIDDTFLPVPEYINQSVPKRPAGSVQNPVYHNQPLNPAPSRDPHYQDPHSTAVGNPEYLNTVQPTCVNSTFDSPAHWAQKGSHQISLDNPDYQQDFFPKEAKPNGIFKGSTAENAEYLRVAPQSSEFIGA
Method: Using the following reagents, supplies, and method, the ability of compounds of the invention to modulate the in vitro activity of EGFR can be readily determined in an ELISA.
A431 […] cell lysate is stored at −80° C.
ATP/MnCl2 phosphorylation mix is prepared by adding 300 μL of 1.0 mM ATP and […] of 1M MnCl2 to 9.2 mL of dH2O and mixing. Ten mL of phosphorylation mix is enough for about 6 assay plates. Note that the mixture should be made fresh and kept on ice immediately before use, and that although the preferred ATP is fresh from powder stock, any remaining stock solution of ATP may be frozen at −20° C. in small aliquots to be used at a later time.
Coat Corning 96 well ELISA plates with 0.5 μg per well with SUMO1 in a volume of 100 μL PBS overnight, at 4° C. Remove unbound SUMO1 from wells by inverting plate to remove liquid. Wash 1× with distilled H2O by filling wells. Pat the plate on a paper towel to remove excess liquid.
Add 150 μL of Blocking Buffer to each well. Incubate for 30 minutes at room temperature, with shaking. Wash plate 3× with deionized water, then once with TBST. Pat plate on a paper towel to remove excess liquid and bubbles.
Dilute lysate in PBS (7 μg lysate/[…]) and add 100 μL of diluted lysate to each well. Shake at room temperature for 60 minutes. Wash 1× with distilled H2O by filling wells. Pat the plate on a paper towel to remove excess liquid.
Add 120 μL TBST to ELISA plate containing captured EGFR.
Dilute drugs/extracts 1:10 (unless specified otherwise) in TBST in 96-well polypropylene plates. (i.e., 10 μL compound+90 μL TBST). Add 13.5 μL diluted drugs/extracts to ELISA plate. […] Incubate for 30 minutes while shaking at room temperature.
Approximately 150 μL final volume in well with 3 uM ATP/5 mM MnCl2 final concentration in well. Incubate 5 minutes while shaking. Note that this is a timed event. It is critical that ATP/MnCl2 phosphorylates the receptor for only 5 minutes. It is best to add the ATP/MnCl2 with an automated 96 place pipettor workstation, then 5 minutes later stop the reaction with EDTA using the same workstation. Alternatively, addition can be performed using a 12 channel pipettor 1 row at a time, leaving 20 seconds between each row so that the reaction may be stopped with EDTA exactly 5 minutes later (this depends on the number of plates being phosphorylated in one batch). Shake between each addition.
[…] This is done using either the same work station as above, or the same timing method employed with the 12 channel pipettor. After the EDTA has been added, shake for 1 minute. Wash 4× with deionized water, twice with TBST.
Add 100 μL per well of anti-phosphotyrosine (1:3000 dilution in TBST). Incubate 30-45 minutes at room temperature, with shaking. Wash 1× with distilled H2O by filling wells. Pat the plate on a paper towel to remove excess liquid.
Incubate 30 minutes at room temperature, with shaking. Wash 1× with distilled H2O by filling wells. Pat the plate on a paper towel to remove excess liquid.
Add 100 μL of ABTS/H2O2 solution to each well. Incubate 5 to 10 minutes while shaking. Remove any bubbles. If necessary stop reaction with the addition of 100 μL of 0.2M HCl per well.
Read assay on Dynatech MR7000 ELISA reader.

T1 sequence (P04626 720-987 limits assumed): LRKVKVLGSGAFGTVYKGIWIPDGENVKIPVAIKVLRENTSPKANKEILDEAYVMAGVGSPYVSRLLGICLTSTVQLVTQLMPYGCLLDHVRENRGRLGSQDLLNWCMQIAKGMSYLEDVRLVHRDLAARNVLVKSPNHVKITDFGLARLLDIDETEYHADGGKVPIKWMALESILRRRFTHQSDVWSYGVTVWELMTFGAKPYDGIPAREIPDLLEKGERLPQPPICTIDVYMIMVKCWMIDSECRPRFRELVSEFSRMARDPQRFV

Compound | IC50 (HER-2) | IC50 (EGFR)
Cc1cc(CCC(=O)N2CCN(C)CC2)[nH]c1/C=C1\C(=O)Nc2ncnc(Nc3ccc(F)c(Cl)c3)c21 [Formula 25] | 11900 nM | 58 nM
Cc1cc(CCC(=O)O)[nH]c1/C=C1\C(=O)Nc2ncnc(Nc3ccc(F)c(Cl)c3)c21 [Formula 49] | 1800 nM | 5 nM
Cc1cc(C(=O)NCCN2CCOCC2)[nH]c1/C=C1\C(=O)N(C)c2ncnc(Nc3ccc(F)c(Cl)c3)c21 [Formula 32] | 18700 nM | 7140 nM
Cc1cc(/C=C2\C(=O)Nc3ncnc(Nc4ccc(F)c(Cl)c4)c32)[nH]c1C(=O)N1CCN(C)CC1 [Formula 35] | 590 nM | 400 nM
CCN(CC)CCNC(=O)c1c(C)[nH]c(/C=C2\C(=O)Nc3ncnc(Nc4ccc(F)c(Cl)c4)c32)c1C [Formula 28] | 160 nM | 210 nM
Cc1[nH]c(/C=C2\C(=O)Nc3ncnc(Nc4ccc(F)c(Cl)c4)c32)c(C)c1CC(=O)O [Formula 51] | 860 nM | 38 nM

— patent US6908930B2, “4-substituted 7-AZA-indolin-2-ones and their use as protein kinase inhibitors” (Sugen, Inc., priority 1999, dated 2005)
